Test results as given in patent publication US11858905B1, “Cathepsin L inhibitors” (priority 2023, dated 2024).
pIC50: −log10 of the molar value.

Tests used:
human CatL = human CatL (Homo sapiens (Human), UniProt P07711); test: Human Cathepsin L (CatL) enzymatic assay; format: biochemical; settings: CatL 0.05 nM, substrate 500 nM, pH 5.5; read-out: Enzymatic inhibition IC50
Description: Human Cathepsin L (CatL) Enzymatic Assay
60 μL of the compounds were added to 384-well dilution plate. The compound solution was diluted for 1:3 in succession in DMSO for each column for 10 pts. 0.05 μL diluted compound solution was added in each row to 384 assay plates (Corning 4514) using Echo (LABCYTE 655), each column containing 2 replicates. 5 μL working solution of human CatL enzyme (Abcam #ab81780) was added to 384-well assay plate, centrifuge 1000 rpm for 1 min. The mixture was incubated at […] for 15 min, then add 5 μL working solution of CatL substrate (Genscript #C7360HB140_5) to initiate the reaction (CatL: 0.05 nM, Substrate: 500 nM). Incubate at […] for 30 min. Reading Ex370 nm and Em460 nm fluorescence signals with BMG CLARIO Star Plusaucu. Percent inhibition for each compound was calculated and IC50 (half maximal inhibitory concentration) was fitted from non-linear regression by XLfit 5.5.0.

SARS-CoV-2 PsVs = test: microbe, parasite or virus in culture; format: cell-based; settings: for activity at 0.5 µM / activity at 5 µM: Severe acute respiratory syndrome coronavirus 2, Vero C1008, 24 h; for activity at 0.5 µM: read-out: % Infection rate at 500 nM; for activity at 5 µM: read-out: % Infection rate at 5 uM
RSV = RSV infected mice; cited from earlier work

Sequence of human CatL (P07711 whole entry, looked up): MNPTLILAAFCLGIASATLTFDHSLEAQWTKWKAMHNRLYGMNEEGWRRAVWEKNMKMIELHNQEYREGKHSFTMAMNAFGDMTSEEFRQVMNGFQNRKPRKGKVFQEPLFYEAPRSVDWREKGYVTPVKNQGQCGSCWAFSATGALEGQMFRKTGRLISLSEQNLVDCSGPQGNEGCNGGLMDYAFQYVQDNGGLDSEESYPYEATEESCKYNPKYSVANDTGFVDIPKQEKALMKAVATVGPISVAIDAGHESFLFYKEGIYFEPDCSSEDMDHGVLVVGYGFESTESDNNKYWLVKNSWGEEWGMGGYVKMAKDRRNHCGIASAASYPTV

| SMILES | pIC50 (human CatL) | protection of cells from pseudovirus infection at 500 nM (SARS-CoV-2 PsVs) | activity at 0.5 µM (SARS-CoV-2 PsVs) | activity at 5 µM (SARS-CoV-2 PsVs) | airway hyperresponsiveness (RSV) | viral clearance (RSV) |
| --- | --- | --- | --- | --- | --- | --- |
| COCCN1CC=C(c2ccc3nc(C[C@H](NC(=O)c4cc(C(C)(C)C)nn4C4CC4)C(=O)NCC#N)oc3c2)CC1 [Compound 45, (2S)-2-[(5-tert-butyl-2-cyclopropylpyrazol-3-yl)formamido]-N-(cyanomethyl)-3-{6-[1-(2-methoxyethyl)-3,6-dihydro-2H-pyridin-4-yl]-1,3-benzoxazol-2-yl}propanamide] | 8.60 | nearly full protection | 7% | 0.02% |  |  |
| COCCN1CC=C(c2ccc3nc(C[C@H](NC(=O)c4cc(C5(C)CC5)nn4C4CC4)C(=O)NC4(C#N)CC4)oc3c2)CC1 [Compound 46, (2S)—N-(1-cyanocyclopropyl)-2-{[2-cyclopropyl-5-(1-methylcyclopropyl)pyrazol-3-yl]formamido}-3-{6-[1-(2-methoxyethyl)-3,6-dihydro-2H-pyridin-4-yl]-1,3-benzoxazol-2-yl}propanamide] | 9.00 | nearly full protection | 7% | 0.08% |  |  |
| CC1(c2cc(C(=O)N[C@@H](Cc3nc4ccc(-c5ccnc(C(F)F)c5)cc4o3)C(=O)NC3(C#N)CC3)n(C3CC3)n2)CC1 [Compound 47, (S)—N-(1-((1-cyanocyclopropyl)amino)-3-(6-(2-(difluoromethyl)pyridin-4-yl)benzo[d]oxazol-2-yl)-1-oxopropan-2-yl)-1-cyclopropyl-3-(1-methylcyclopropyl)-1H-pyrazole-5-carboxamide] | 8.18 |  | 56% | 15.9% |  |  |
| CC1(c2cc(C(=O)N[C@@H](Cc3nc4ccc(-c5ccnc(C6CC6)c5)cc4o3)C(=O)NC3(C#N)CC3)n(C3CC3)n2)CC1 [Compound 48, (S)—N-(1-((1-cyanocyclopropyl)amino)-3-(6-(2-cyclopropylpyridin-4-yl)benzo[d]oxazol-2-yl)-1-oxopropan-2-yl)-1-cyclopropyl-3-(1-methylcyclopropyl)-1H-pyrazole-5-carboxamide] | 8.46 |  | 63% | 22.4% |  |  |
| CC(C)C[C@H](NC(=O)[C@H]1O[C@@H]1C(=O)O)C(=O)NCCCCN=C(N)N [Compound E64, E64] |  |  |  |  | prevented airway hyperresponsiveness | enhanced viral clearance |
| NC(=O)c1ncn([C@@H]2O[C@H](CO)[C@@H](O)[C@H]2O)n1 [ribavirin] |  |  |  |  | prevented airway hyperresponsiveness | enhanced viral clearance |
